Experimental data as given in patent publication US9464326B2, “Total and phosphorylated IL-1 receptor-associated kinase-1 and IL-1 receptor-associated kinase-4 as a biomarker for cancer progression and chemotherapy resistance” (University of Maryland, Baltimore, priority 2012, dated 2016).

Key:
A375 melanoma cells [1] = assay: Western blot of cleaved PARP and caspase-3; assay type: cell-based, human; conditions: for levels of cleaved PARP and caspase-3: 48 hrs, FIG. 8D
Description: FIG. 8. […] (A) A375 and Malme-3M melanoma cells were cultured with or without 2.5 μM of IRAK-1,-4 and in the presence varying concentrations of vinblastine, cisplatin or 5′ Fluorouracil. Forty-eight hours later apoptosis was evaluated by staining cells with annexin-V and propidium iodide and analyzed by flow cytometry. (B) A375 cells were transfected via electroporation with siRNA-IRAK-1,-4. IRAK-1 protein levels were examined by Western blotting. […], A375-psiRNA-hIRAK-1, A375-psiRNA-hIRAK-4, or cells expressing both psiRNA-hIRAK-1 and -4 were cultured in the presence of vinblastine (100 nmol/L) for 48 hours and apoptosis was examined by flow cytometry. (C) A375 melanoma cells were cultured in the presence of vehicle alone (DMSO) or various concentrations of IRAK-1,-4. Forty-eight hours later cell lysates were used to analyze the expression of levels of cleaved PARP or caspase-3 by Western blots. (D) A375 melanoma cells were cultured with or without 2.5 μM of IRAK.-1,-4 and in the presence or absence of vinblastine for 48 hrs. PARP and caspase-3 levels were determined by Western blot.
Total cell extracts were prepared from melanoma cells. […] Melanoma tissue arrays were purchased from US Biomax, Inc (Rockville, Md.). For immunohistochemical staining samples were stained with mouse monoclonal anti-human phosphor-IRAK.-4 antibody (Abnova; dilution, 3.5 μg/ml) or normal mouse serum. Tissue histology sections (5-μm-thick) were deparaffinized, hydrated, heated in boiling 10 mmol/L sodium citrate (pH 6.0), for antigen retrieval, for 30 min and washed in Tris buffer. Peroxide blocking was done with 3% […] in methanol at room temperature for 15 min, followed by 10% fetal bovine serum in TBS-t for 30 min at room temperature. Primary antibody incubation was done overnight at 4° C. Secondary antibody incubation with horse anti-mouse (1:200; Vector Laboratories, Burlingame, Calif.) was done for 1 hr, followed by application of diaminobenzidine chromogen for 5 min. The slides were then counterstained with hematoxylin and topped with a coverslip. IHC specimens were analyzed using “quick score” system in which the intensity of the immunohistochemical reaction was scored by multiplying the intensity 1 (weak), 2 (moderate), and 3 (strong) and the proportion of cells staining positively 0 (<10%), 1 (10-25%), 2 (26-50%), 3 (51-75%) or 4 (>75%).

A375 melanoma cells [2] = assay: Apoptosis by annexin-V/PI flow cytometry in A375; assay type: cell-based, human
Description: FIG. 8. IRAK-1,-4 inhibition sensitized melanoma cells to vinblastine-mediated cytotoxicity. (A) A375 and Malme-3M melanoma cells were cultured with or without 2.5 μM of IRAK-1,-4 and in the presence varying concentrations of vinblastine, cisplatin or 5′ Fluorouracil. Forty-eight hours later apoptosis was evaluated by staining cells with annexin-V and propidium iodide and analyzed by flow cytometry. (B) A375 cells were transfected via electroporation with siRNA-IRAK-1,-4. IRAK-1 protein levels were examined by Western blotting. […], A375-psiRNA-hIRAK-1, A375-psiRNA-hIRAK-4, or cells expressing both psiRNA-hIRAK-1 and -4 were cultured in the presence of vinblastine (100 nmol/L) for 48 hours and apoptosis was examined by flow cytometry. (C) A375 melanoma cells were cultured in the presence of vehicle alone (DMSO) or various concentrations of IRAK-1,-4. Forty-eight hours later cell lysates were used to analyze the expression of levels of cleaved PARP or caspase-3 by Western blots. (D) A375 melanoma cells were cultured with or without 2.5 μM of IRAK.-1,-4 and in the presence or absence of vinblastine for 48 hrs. PARP and caspase-3 levels were determined by Western blot.
FIG. 20. Role of TLR-induced cytokines and NF-kB on cell survival. […] The percentage of apoptotic cells was measured by staining cells with Annexin and PI 48 hours later and analyzed by flow cytometry. […] After 48 hours, apoptosis was measured by flow cytometry. […] Apoptosis was measured 48 hours later by flow cytometry.
The TLR1-TLR2 ligand tripalmitoyl-S-(bis(palmitoyloxy)propyl)-Cys-Ser-(Lys)3-Lys (Pam3Cys) was purchased from Invivogen (San Diego, Calif., USA). […] In some experiments cells were treated with the indicated concentrations of IRAK.-1,-4 inhibitor and vinblastine, cisplatin, and 5-fluorouracil (Sigma-Aldrich, St. Louis, Mo.), and apoptosis was quantitated by flow cytometry after staining cells with FITC-labeled annexin-V (BD Pharmingen, San Jose, Calif.) and propidium iodide (PI; Sigma-Aldrich).

Structure (SMILES): O=C(Nc1nc2ccccc2n1CCN1CCOCC1)c1cccc([N+](=O)[O-])c1 [IRAK-1,-4 inhibitor]
- levels of cleaved PARP and caspase-3 (A375 melanoma cells [1]; 2.5 μmol/L IRAK-1,-4 inhibitor combined with vinblastine): increased the levels
- active caspase-3 (A375 melanoma cells [1]; 10 μM, 48 h, FIG. 8C): detected
- cleaved PARP (A375 melanoma cells [1]; concentration-dependent, 48 h, FIG. 8C): Enhanced accumulation
- levels of cleaved PARP and caspase-3 (A375 melanoma cells [1]; single agent alone): little effect
- sensitivity to vinblastine (apoptosis) (A375 melanoma cells [2]; 2.5 μmol/L IRAK-1,-4 inhibitor with 0-200 nmol/L vinblastine, 48 h): increased sensitivity
- cisplatin's cytotoxicity (A375 melanoma cells [2]; IRAK-1,-4 inhibitor with 0-50 nmol/L cisplatin): did not increase
- melanoma apoptosis (A375 melanoma cells [2]; inhibitor alone, absence of vinblastine): moderately increased
